Tests used:
Format in all cases: biochemical
[1] = target: T1, luciferase (firefly) (Photinus pyralis, UniProt P08659); assay: Luminescence characteristics with firefly luciferase (Example 3); settings: for relative intensity: calculated on the basis of the intensity obtained for aminoluciferin; for λmax(nm): luminescence peak, HEPES pH 7.7, ATP, Mg, CoA; for λmax(nm) / initial intensity: 12 μmol/L substrate, 20 μg/mL luciferase; for initial intensity: luminescence, HEPES pH 7.7; for peak luminescence wavelength shift to longer wavelength side compared with luciferin: versus luciferin
T1 sequence (P08659 whole entry, species assumed): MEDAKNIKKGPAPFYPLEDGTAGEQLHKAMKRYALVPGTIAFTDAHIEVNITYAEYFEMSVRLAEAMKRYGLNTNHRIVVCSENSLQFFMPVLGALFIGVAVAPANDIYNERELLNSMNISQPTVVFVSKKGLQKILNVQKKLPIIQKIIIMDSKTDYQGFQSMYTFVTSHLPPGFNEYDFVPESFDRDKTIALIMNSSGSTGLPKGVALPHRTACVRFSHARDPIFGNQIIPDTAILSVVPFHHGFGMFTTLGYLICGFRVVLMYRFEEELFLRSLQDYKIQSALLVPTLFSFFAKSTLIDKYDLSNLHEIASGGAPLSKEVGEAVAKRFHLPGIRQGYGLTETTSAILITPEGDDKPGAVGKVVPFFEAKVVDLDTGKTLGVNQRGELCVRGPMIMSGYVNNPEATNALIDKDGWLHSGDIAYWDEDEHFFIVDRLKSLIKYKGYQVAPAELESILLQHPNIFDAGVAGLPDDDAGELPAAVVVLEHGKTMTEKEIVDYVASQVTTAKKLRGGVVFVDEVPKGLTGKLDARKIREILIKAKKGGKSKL
Method: The measurement was performed by using Fluorescence Spectrophotometer F-4500 (Hitachi).

[2] = target: T1, luciferase (firefly); assay: Measurement of luminescence after reaction with luciferase (Example 5, FIG. 2); settings: 12 μmol/L substrate, 40 μg/mL luciferase
Method: Luminescence spectra of Compounds 19 and 20 were measured.

[3] = target: T1, luciferase (firefly); assay: HPLC analysis of luciferase reaction product with or without ATP (Example 6, FIG. 3); settings: system added with ATP vs without ATP
Method: For 6-(4-aminophenethyl)-aminoluciferin (Compound 21), the enzymatic reaction was also performed in a system without ATP (all the other conditions were the same as Example 5), along with the aforementioned enzymatic reaction in Example 5. After these two enzymatic reactions, each enzymatic reaction mixture was collected and filtered by using a centrifugal separator to remove the enzyme. The solvent was evaporated by lyophilization to obtain a residue after the enzymatic reaction. A small amount of the residue was dissolved in purified water and methanol, then analyzed by HPLC. The results are shown in FIG. 3. • Analysis conditions • Elution solvent: A=H2O/0.1% trifluoroacetic acid, B=80% acetonitrile/20% • water/0.1% trifluoroacetic acid, A/B=80/20 to 20/80 (20 minutes) • Detection: UV-vis (400 nm) • Column: ODS-3, 4.6×250 mm • Flow rate: 1 mL/min

| Compound | relative intensity [1] | λmax(nm) [1] | initial intensity [1] | peak luminescence wavelength shift to longer wavelength side compared with luciferin [1] | initial intensity ([1]; listed as N-phenethylaminoluciferin) | luminescent property [2] | luminescence peak ([2]; HEPES pH 7.7) | reaction as luciferase substrate (elution peak of compound after enzymatic reaction) [3] |
| --- | --- | --- | --- | --- | --- | --- | --- | --- |
| CNc1ccc2nc(C3=NC(C(=O)O)CS3)sc2c1 (stereo not shown) [Compound 10, N-methylaminoluciferin] | 66.5 | 624 nm | 1360 | 49 nm | – | – | – | – |
| CN(C)c1ccc2nc(C3=NC(C(=O)O)CS3)sc2c1 (stereo not shown) [Compound 11, N,N-dimethylaminoluciferin] | 44.1 | 641 nm | 901 | 66 nm | – | – | – | – |
| O=C(O)C1CSC(c2nc3ccc(NCc4ccccc4)cc3s2)=N1 (stereo not shown) [Compound 12, N-benzylaminoluciferin] | 5.2 | 623 nm | 106 | 48 nm | – | – | – | – |
| O=C(O)C1CSC(c2nc3ccc(NCCc4ccccc4)cc3s2)=N1 (stereo not shown) [Compound 13, N-phenethylaminoaminoluciferin] | 8.6 | 611 nm | – | 36 nm | 175 | – | – | – |
| O=C(O)C1CSC(c2nc3ccc(NCCCc4ccccc4)cc3s2)=N1 (stereo not shown) [Compound 14, N-phenylpropylaminoluciferin] | 48.0 | 611 nm | 980 | 36 nm | – | – | – | – |
| O=C(Nc1ccc(CCNc2ccc3nc(C4=NC(C(=O)O)CS4)sc3c2)cc1)OCc1ccccc1 (stereo not shown) [Compound 19, 6-(4′-benzyloxycarbonylamidophenethyl)-aminoluciferin] | – | – | – | – | – | luminescence was observed | about 610 nm | – |
| Nc1ccc(CCNc2ccc3nc(C4=N[C@@H](C(=O)O)CS4)sc3c2)cc1 [Compound 21, 6-(4′-aminophenethyl)-aminoluciferin] | – | – | – | – | – | completely lost the luminescent property | – | reacted as a luciferase substrate |
| Nc1ccc2nc(C3=N[C@@H](C(=O)O)CS3)sc2c1 [aminoluciferin, reference compound] | 100.0 | 609 nm | 2044 | 34 nm | – | – | – | – |
